Each compound was assayed against T1, Phosphatidylinositol 4,5-bisphosphate 3-kinase catalytic subunit delta isoform (Homo sapiens, UniProt O00329) (assay: [PIP2] was used at its Km.).
T1 sequence (O00329 whole entry): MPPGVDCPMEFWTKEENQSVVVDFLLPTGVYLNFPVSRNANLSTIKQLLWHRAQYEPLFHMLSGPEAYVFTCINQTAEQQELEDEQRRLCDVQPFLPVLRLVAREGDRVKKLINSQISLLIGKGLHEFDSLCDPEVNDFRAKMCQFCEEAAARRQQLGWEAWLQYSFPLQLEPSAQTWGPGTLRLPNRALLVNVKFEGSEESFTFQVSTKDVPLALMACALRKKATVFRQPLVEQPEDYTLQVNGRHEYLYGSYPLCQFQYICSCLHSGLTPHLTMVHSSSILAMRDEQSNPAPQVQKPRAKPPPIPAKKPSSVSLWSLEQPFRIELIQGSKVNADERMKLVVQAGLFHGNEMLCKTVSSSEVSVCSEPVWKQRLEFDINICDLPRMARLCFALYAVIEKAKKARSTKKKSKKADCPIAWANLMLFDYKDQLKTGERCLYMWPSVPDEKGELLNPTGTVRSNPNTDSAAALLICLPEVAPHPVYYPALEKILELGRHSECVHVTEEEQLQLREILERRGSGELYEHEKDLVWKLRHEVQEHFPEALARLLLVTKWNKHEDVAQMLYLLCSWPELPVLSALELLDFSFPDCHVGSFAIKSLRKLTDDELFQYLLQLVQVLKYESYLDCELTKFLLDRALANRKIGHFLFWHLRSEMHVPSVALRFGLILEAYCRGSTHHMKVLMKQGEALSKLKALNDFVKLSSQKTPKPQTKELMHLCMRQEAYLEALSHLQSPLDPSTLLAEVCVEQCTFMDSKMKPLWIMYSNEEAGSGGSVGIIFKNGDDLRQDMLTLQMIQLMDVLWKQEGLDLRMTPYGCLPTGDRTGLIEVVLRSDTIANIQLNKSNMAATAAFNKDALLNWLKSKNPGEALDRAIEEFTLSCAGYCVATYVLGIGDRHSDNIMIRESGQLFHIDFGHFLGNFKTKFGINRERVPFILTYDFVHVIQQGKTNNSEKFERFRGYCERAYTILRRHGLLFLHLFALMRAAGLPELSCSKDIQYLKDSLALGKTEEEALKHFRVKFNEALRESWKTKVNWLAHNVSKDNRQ

| IC50 [nM] | Compound |
| --- | --- |
| 1 | COc1ncc(-c2c(N)ncnc2N[C@@H](C)c2nn3ccc(C)c3c(=O)n2-c2ccccc2)cc1NS(=O)(=O)C(F)(F)F |
| 2 | C[C@H](Nc1ncnc(N)c1C#N)c1nn2ccc(Sc3ccc(O)c(F)c3)c2c(=O)n1-c1ccccc1 |
| 3 | Cc1ccn2nc([C@H](C)Nc3ncnc(N)c3C(=O)Nc3cc(C(N)=O)ccc3O)n(-c3ccccc3)c(=O)c12 |
| 25 | COc1ncc(-c2c(N)ncnc2N[C@@H](C)c2nn3ccc(Br)c3c(=O)n2-c2ccccc2)cc1NS(C)(=O)=O |
| 0.4 | COc1ccc(S(=O)(=O)n2ncc3ccc(-c4c(N)ncnc4N[C@@H](C)c4nn5ccc(C)c5c(=O)n4-c4ccccc4)cc32)cc1 |
| 3 | Cc1ccn2nc([C@H](C)Nc3ncnc(N)c3C(=O)Nc3cccc(O)c3)n(-c3ccccc3)c(=O)c12 |

From ChEMBL document CHEMBL3886805, “Pyrrolotriazinone derivatives as PI3K inhibitors” (2016)
